IC50 data for 20 molecules are collected here from US20230031406A1, “COMPOUNDS AND COMPOSITIONS FOR TREATING CONDITIONS ASSOCIATED WITH NLRP ACTIVITY” (Novartis AG, priority 2018, published 2023).

Read-outs that look alike come from different tables or passages of the source. Some results are limits rather than exact numbers.

The test system of the assay is PMA-differentiated THP-1 cells. As to the kind of experiment: IL-1β production in PMA-differentiated THP-1 cells stimulated with gramicidin (hTHP-1 assay containing 2% fetal bovine serum; Procedures 1 and 2). The note with it: 2% fetal bovine serum. The class given is cell-based, human. In short, it runs like this:
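IL-1β release from PMA-differentiated THP-1 macrophage-like cells was triggered by 5 μM gramicidin for 2 h after 1 h compound exposure, then measured by HTRF.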

[1] abbreviates: Homo sapiens, THP-1, Table B2, class symbols, read-out: hTHP-1 IC50.
Setting [2] is: Table B4, class symbols, read-out: hTHP-1 IC50.
Setting [3] is: Homo sapiens, THP-1, Table B3, hTHP-1 assay, class symbols, read-out: IC50.
[4] abbreviates: Table B2, class symbols, read-out: hTHP-1 IC50.
[5] abbreviates: Homo sapiens, THP-1, Table B1, class symbols, read-out: Average IC50 of compounds in hTHP-1 assay: hTHP-1 IC50.

Usually IC50 stands for the concentration that inhibits the measured activity by half. As to `C[C@@H]1CCc2c1nc1c(c2NC(=O)N=S(N)(=O)c2ccn(-c3ccccc3)n2)CCC1` (single isomer, unassigned) [Compound 700b, (R) or (S)-N′-(((R)-3-methyl-1,2,3,5,6,7-hexahydrodicyclopenta [b,e]pyridin-8-yl)carbamoyl)-1-phenyl-1H-pyrazole-3-sulfonimidamide], the IC50 under setting [1] fell in the range of 200 to 1000 nM.
As for `CC1(C)CCc2c1nc1c(c2NC(=O)N=S(N)(=O)c2sc(C(O)(CO)CO)nc2CO)CCC1` (single isomer, unassigned) [Example 778, (S) or (R)-N′-((3,3-dimethyl-1,2,3,5,6,7-hexahydrodicyclopenta [b,e]pyridin-8-yl)carbamoyl)-4-(hydroxymethyl)-2-(1,2,3-trihydroxypropan-2-yl)-thiazole-5-sulfonimidamide], the IC50 under setting [2] lay in the range of 1000 to 5000 nM.
For `CC(C)c1nc2c(cc1NC(=O)N=[S@@](N)(=O)c1cnc(C(C)(C)O)s1)CCC2` [Compound 601b], under setting [1], the IC50 was 5000 to 30000 nM.
In the case of `Cc1c(C(F)(F)F)nc2c(c1NC(=O)N=S(N)(=O)c1nn(C(F)F)cc1F)CCC2` (single isomer, unassigned) [Example 562], the IC50 (Table B3, hTHP-1 assay, class symbols, read-out: IC50) was in the range of 200 to 1000 nM.
Regarding `CCn1cc(F)c(S(N)(=O)=NC(=O)Nc2c3c(nc4c2CCC4)CCC3)n1` (single isomer, unassigned) [Example 761, (R) or (S)-1-ethyl-4-fluoro-N′-((1,2,3,5,6,7-hexahydrodicyclopenta[b,e]pyridin-8-yl)carbamoyl)-1H-pyrazole-3-sulfonimidamide], the IC50 under setting [2] fell in the range of 40 to 200 nM.
As to `CC(C)(O)c1csc(S(N)(=O)=NC(=O)Nc2c3c(nc4c2CCC4)CCC3)c1` (single isomer, unassigned) [Compound 155a, (R) or (S)-N′-((1,2,3,5,6,7-hexahydrodicyclo-penta[b,e]pyridin-8-yl)carbamoyl)-4-(2-hydroxypropan-2-yl)thiophene-2-sulfonimidamide], the IC50 (Table B1, class symbols, read-out: Average IC50 of compounds in hTHP-1 assay: hTHP-1 IC50) was 40 to 200 nM.
For `CCn1cc(F)c(S(N)(=O)=NC(=O)Nc2c3c(nc4c2CCC4(C)C)CCC3)n1` (centres unmarked) [Example 638, N′-((3,3-dimethyl-1,2,3,5,6,7-hexahydrodicyclopenta[b,e]pyridin-8-yl)carbamoyl)-1-ethyl-4-fluoro-1H-pyrazole-3-sulfonimidamide], under setting [3], the 50% inhibitory concentration (IC50) was 8 to 40 nM.
As for `C[C@@H]1CCc2c1nc1c(c2NC(=O)N=S(N)(=O)c2sc(CN(C)C)cc2F)CCC1` (single isomer, unassigned) [Compound 636b, (R) or (S)-5-((Dimethylamino)methyl)-3-fluoro-N′-(((R)-3-methyl-1,2,3,5,6,7-hexahydrodicyclopenta [b,e]pyridin-8-yl)carbamoyl) thiophene-2-sulfonimidamide], the IC50 under setting [4] was 40 to 200 nM.
As to `CC(C)(O)c1scc(S(N)(=O)=NC(=O)Nc2c3c(nc4c2CCC4)CCC3)c1F` (single isomer, unassigned) [Compound 701a, (R) or (S)-4-Fluoro-N′-((1,2,3,5,6,7-hexahydrodicyclopenta [b,e]pyridin-8-yl)carbamoyl)-5-(2-hydroxypropan-2-yl)thiophene-3-sulfonimidamide], the IC50 under setting [1] lay in the range of 5000 to 30000 nM.
Same read-out and setting: the same measure for `CC(C)(O)c1sc(S(N)(=O)=NC(=O)Nc2c3c(nc4c2CCC4)CCC3)cc1F` (single isomer, unassigned) [Compound 678a, (R) or (S)-4-Fluoro-N′-((1,2,3,5,6,7-hexahydrodicyclopenta [b,e]pyridin-8-yl)carbamoyl)-5-(2-hydroxypropan-2-yl)thiophene-2-sulfonimidamide]: 1000 to 5000 nM.
For `CC(C)(O)c1csc(S(N)(=O)=NC(=O)Nc2c3c(nc(C4CC4)c2C2CC2)CCC3)c1` (single isomer, unassigned) [Compound 670b, (R) or (S)-N′-((2,3-dicyclopropyl-6,7-dihydro-5H-cyclopenta[b]pyridin-4-yl)carbamoyl)-4-(2-hydroxypropan-2-yl)thiophene-2-sulfonimidamide], under setting [4], the IC50 was in the range of 40 to 200 nM.
Consider `CC(C)(O)c1cc(Br)c(S(N)(=O)=NC(=O)Nc2c3c(nc4c2CCC4)CCC3)s1` (single isomer, unassigned) [Compound 690b, (R) or (S)-3-Bromo-N′-((1,2,3,5,6,7-hexahydrodicyclopenta [b,e]pyridin-8-yl)carbamoyl)-5-(2-hydroxypropan-2-yl)thiophene-2-sulfonimidamide], for which, under setting [1], the IC50 is 1000 to 5000 nM.
Turning to `NS(=O)(=NC(=O)Nc1c2c(nc3c1CCC31CC1)CCC2)c1ccn(C(F)F)n1` (single isomer, unassigned) [Compound 180a, (R) or (S)-1-(difluoromethyl)-N′-((1′,5′,6′,7′-tetrahydro-2′H-spiro[cyclopropane-1,3′-dicyclopenta[b,e]pyridin]-8′-yl)carbamoyl)-1H-pyrazole-3-sulfonimidamide], the IC50 under setting [5] fell in the range of 200 to 1000 nM.
In the case of `Cc1c(C2(F)CC2)nc2c(c1NC(=O)N=S(N)(=O)c1sc(C(C)(C)O)cc1F)CCC2` (single isomer, unassigned) [Example 685, (R) or (S)-3-fluoro-N′-((2-(1-fluorocyclopropyl)-3-methyl-6,7-dihydro-5H-cyclopenta [b]pyridin-4-yl)carbamoyl)-5-(2-hydroxypropan-2-yl) thiophene-2-sulfonimidamide], under setting [3], the IC50 lay in the range of 200 to 1000 nM.
Take `CCn1cc(F)c(S(N)(=O)=NC(=O)Nc2c3c(nc4c2CCC4)CCC3)n1` (single isomer, unassigned) [Example 762, (S) or (R)-1-ethyl-4-fluoro-N′-((1,2,3,5,6,7-hexahydrodicyclopenta[b,e]pyridin-8-yl)carbamoyl)-1H-pyrazole-3-sulfonimidamide]: the IC50 under setting [2] is 5000 to 30000 nM.
With `Cc1c(C(F)(F)F)nc2c(c1NC(=O)N=S(N)(=O)c1ccn(C(F)F)n1)CCC2` (single isomer, unassigned) [Compound 621b, (R) or (S)-1-(Difluoromethyl)-N′-((3-methyl-2-(trifluoromethyl)-6,7-dihydro-5H-cyclopenta[b]pyridin-4-yl)carbamoyl)-1H-pyrazole-3-sulfonimidamide], under setting [4], the IC50 was 1000 to 5000 nM.
As to `CCc1cc(NC(=O)N=S(N)(=O)c2cnc(C(C)(C)O)s2)c2c(n1)CCC2` (centres unmarked) [Compound 137, N′-((2-ethyl-6,7-dihydro-5H-cyclopenta[b]pyridin-4-yl)carbamoyl)-2-(2-hydroxypropan-2-yl)thiazole-5-sulfonimidamide], the IC50 (Homo sapiens, THP-1, Table B1, numeric bounds, read-out: Average IC50 of compounds in hTHP-1 assay: hTHP-1 IC50) was greater than 30000 nM.
Take `CCn1cc(F)c(S(N)(=O)=NC(=O)Nc2c3c(nc(C)c2-c2ccccc2)CCC3)n1` (centres unmarked) [Example 741, 1-Ethyl-4-fluoro-N′-((2-methyl-3-phenyl-6,7-dihydro-5H-cyclopenta[b]pyridin-4-yl)carbamoyl)-1H-pyrazole-3-sulfonimidamide]: where the note is “Homo sapiens, THP-1, Table B4, class symbols, read-out: hTHP-1 IC50”, the IC50 fell in the range of 40 to 200 nM.
Take `CC1(C)Cc2nc3c(c(NC(=O)N=S(N)(=O)c4cnc(C(C)(C)O)s4)c2C1)CCC3` (single isomer, unassigned) [Compound 147b, (R) or (S)-N′-((2,2-dimethyl-1,2,3,5,6,7-hexahydro-dicyclopenta[b,e]pyridin-8-yl)carbamoyl)-2-(2-hydroxypropan-2-yl)thiazole-5-sulfonimidamide]: the IC50 under setting [5] fell in the range of 1000 to 5000 nM.
Consider `CC1(C)CCc2c1nc1c(c2NC(=O)N=S(N)(=O)c2sc(C(O)(CO)CO)nc2CO)CCC1` (single isomer, unassigned) [Example 777, (R) or (S)-N′-((3,3-dimethyl-1,2,3,5,6,7-hexahydrodicyclopenta[b,e]pyridin-8-yl)carbamoyl)-4-(hydroxymethyl)-2-(1,2,3-trihydroxypropan-2-yl)-thiazole-5-sulfonimidamide], for which the IC50 under setting [2] fell in the range of 200 to 1000 nM.
